Experiments:
[1] = molecular target: Epidermal growth factor receptor (Homo sapiens, UniProt P00533); assay type: single protein
Description: Inhibition of recombinant wild type EGFR (696 to C-terminal residues) (unknown origin) preincubated for 30 mins followed by poly (Glu-Tyr) biotinylated peptide substrate addition measured after 30 mins in presence of ATP by ELISA

[2] = molecular target: Epidermal growth factor receptor (Homo sapiens, UniProt P00533, L858R/T790M); assay: Inhibition of recombinant EGFR (unknown origin) T790M/L858R double mutant preincubated for 30 mins followed by poly (Glu-Tyr) biotinylated peptide substrate addition measured after 30 mins in presence of ATP by ELISA
Epidermal growth factor receptor (Homo sapiens, UniProt P00533, L858R/T790M), sequence (P00533 25-1210 T790M/L858R limits assumed): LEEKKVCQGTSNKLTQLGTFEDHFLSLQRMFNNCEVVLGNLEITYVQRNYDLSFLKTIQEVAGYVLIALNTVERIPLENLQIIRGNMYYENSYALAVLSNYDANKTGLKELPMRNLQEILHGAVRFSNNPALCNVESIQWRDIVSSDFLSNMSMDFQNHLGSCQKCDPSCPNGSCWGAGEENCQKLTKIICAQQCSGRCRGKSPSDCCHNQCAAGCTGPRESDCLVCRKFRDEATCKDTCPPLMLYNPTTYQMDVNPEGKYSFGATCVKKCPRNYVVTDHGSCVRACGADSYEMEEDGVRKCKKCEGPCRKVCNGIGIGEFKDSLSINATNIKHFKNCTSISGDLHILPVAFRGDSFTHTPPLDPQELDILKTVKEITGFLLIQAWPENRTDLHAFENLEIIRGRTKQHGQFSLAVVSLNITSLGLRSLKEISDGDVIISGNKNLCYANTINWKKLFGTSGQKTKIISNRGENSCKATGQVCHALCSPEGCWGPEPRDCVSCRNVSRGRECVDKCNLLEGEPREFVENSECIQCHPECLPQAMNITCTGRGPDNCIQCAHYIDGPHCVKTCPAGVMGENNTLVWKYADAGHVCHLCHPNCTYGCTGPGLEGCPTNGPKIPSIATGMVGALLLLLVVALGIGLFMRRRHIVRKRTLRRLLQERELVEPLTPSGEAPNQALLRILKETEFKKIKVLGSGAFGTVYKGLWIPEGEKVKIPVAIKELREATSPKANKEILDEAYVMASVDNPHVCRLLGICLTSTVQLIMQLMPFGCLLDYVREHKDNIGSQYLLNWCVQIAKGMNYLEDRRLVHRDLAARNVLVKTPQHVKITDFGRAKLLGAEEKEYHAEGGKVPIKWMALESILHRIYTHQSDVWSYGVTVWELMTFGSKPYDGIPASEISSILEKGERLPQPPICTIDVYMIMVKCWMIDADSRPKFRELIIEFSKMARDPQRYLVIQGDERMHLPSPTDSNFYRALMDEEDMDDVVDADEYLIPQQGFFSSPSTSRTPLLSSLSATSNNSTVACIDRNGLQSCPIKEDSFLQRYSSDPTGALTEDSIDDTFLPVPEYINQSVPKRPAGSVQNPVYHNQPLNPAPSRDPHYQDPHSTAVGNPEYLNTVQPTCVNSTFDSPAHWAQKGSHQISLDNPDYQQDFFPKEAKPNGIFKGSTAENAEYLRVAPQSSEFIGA

Epidermal growth factor receptor (Homo sapiens, UniProt P00533), sequence (P00533 whole entry): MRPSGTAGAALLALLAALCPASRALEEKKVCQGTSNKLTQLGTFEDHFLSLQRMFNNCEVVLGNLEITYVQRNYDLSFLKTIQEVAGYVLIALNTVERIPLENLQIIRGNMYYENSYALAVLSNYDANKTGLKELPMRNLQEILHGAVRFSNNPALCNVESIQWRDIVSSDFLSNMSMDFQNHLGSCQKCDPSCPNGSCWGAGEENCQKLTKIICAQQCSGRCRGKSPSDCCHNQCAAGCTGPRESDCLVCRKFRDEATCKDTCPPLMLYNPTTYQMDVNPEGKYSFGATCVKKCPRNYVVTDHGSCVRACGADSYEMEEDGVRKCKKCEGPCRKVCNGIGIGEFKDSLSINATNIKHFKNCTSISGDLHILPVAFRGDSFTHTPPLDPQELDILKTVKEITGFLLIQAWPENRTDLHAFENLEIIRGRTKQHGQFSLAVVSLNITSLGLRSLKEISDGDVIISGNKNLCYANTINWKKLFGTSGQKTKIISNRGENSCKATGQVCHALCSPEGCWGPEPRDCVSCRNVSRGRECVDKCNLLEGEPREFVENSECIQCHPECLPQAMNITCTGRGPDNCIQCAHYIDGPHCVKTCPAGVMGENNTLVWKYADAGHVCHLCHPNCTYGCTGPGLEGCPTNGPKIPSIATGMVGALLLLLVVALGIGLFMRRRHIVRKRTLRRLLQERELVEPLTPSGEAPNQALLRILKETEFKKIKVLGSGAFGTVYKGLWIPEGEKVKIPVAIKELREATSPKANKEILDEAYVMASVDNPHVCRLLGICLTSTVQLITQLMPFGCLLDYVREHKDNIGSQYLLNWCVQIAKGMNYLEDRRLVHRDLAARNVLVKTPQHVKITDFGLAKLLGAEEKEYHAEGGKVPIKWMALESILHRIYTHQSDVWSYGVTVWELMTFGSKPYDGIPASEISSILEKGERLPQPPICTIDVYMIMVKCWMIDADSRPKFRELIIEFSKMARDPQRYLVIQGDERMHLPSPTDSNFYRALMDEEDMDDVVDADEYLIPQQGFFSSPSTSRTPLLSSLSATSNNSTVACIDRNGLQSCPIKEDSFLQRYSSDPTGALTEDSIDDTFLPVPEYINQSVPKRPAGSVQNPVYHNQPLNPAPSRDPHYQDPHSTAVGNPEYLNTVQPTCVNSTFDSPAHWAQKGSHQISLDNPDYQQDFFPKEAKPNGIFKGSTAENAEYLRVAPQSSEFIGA

| IC50 [1] | IC50 [2] | Compound |
| --- | --- | --- |
| 0.191 µM | 0.233 µM | COc1ccc(-c2c3c4cc(OCCN(C)C)c(OCCN(C)C)cc4oc(=O)c3n3ccc4cc(O)c(OC)cc4c23)cc1O |
| 0.215 µM | 0.188 µM | COc1ccc(-c2c3c4cc(OC)c(OCCCN(C)C)cc4oc(=O)c3n3ccc4cc(O)c(OC)cc4c23)cc1O |
| 0.0478 µM | 0.0826 µM | COc1ccc(-c2c3c4cc(O)c(OCCCN(C)C)cc4oc(=O)c3n3ccc4cc(O)c(OC)cc4c23)cc1O |
| 0.0318 µM | 0.0089 µM | COc1ccc(-c2c3c4cc(OCCCN(C)C)c(OCCCN(C)C)cc4oc(=O)c3n3ccc4cc(O)c(OC)cc4c23)cc1O |
| 0.595 µM | 0.56 µM | COc1ccc(-c2c3c4cc(OC)c(OCCN(C)C)cc4oc(=O)c3n3ccc4cc(O)c(OC)cc4c23)cc1O |
| > 1 µM | > 1 µM | COc1ccc(-c2c3c4cc(OC)c(OC)cc4oc(=O)c3n3ccc4cc(O)c(OC)cc4c23)cc1O |
| 0.047 µM | 0.039 µM | COc1ccc(-c2c3c4cc(OC)c(OCCCNC(=N)N)cc4oc(=O)c3n3ccc4cc(O)c(OC)cc4c23)cc1O |
| > 1 µM | > 1 µM | COc1ccc(-c2c3c4cc(OC)c(OCCNC(=N)N)cc4oc(=O)c3n3ccc4cc(O)c(OC)cc4c23)cc1O |
| > 1 µM | > 1 µM | COc1ccc(-c2c3c4cc(OCCCN5CCOCC5)c(OCCCN5CCOCC5)cc4oc(=O)c3n3ccc4cc(O)c(OC)cc4c23)cc1O |
| 0.842 µM | > 1 µM | COc1ccc(-c2c3c4cc(OCCN(C)C)c(OC)cc4oc(=O)c3n3ccc4cc(O)c(OC)cc4c23)cc1O |
| 0.249 µM | 0.397 µM | COc1ccc(-c2c3c4cc(O)c(OC)cc4oc(=O)c3n3ccc4cc(O)c(OC)cc4c23)cc1O |

Source: ChEMBL document CHEMBL4177688, “Design, synthesis, and evaluation of A-ring-modified lamellarin N analogues as noncovalent inhibitors of the EGFR T790M/L858R mutant” (Bioorg Med Chem, 2017)
